Our source for the EC50 values is US20260265233A1, “BENZOTHIOPHENE DERIVATIVES AS RXFP1 AGONISTS” (BRISTOL-MYERS SQUIBB COMPANY, priority 2021, published 2026).

This assay deals with T1, human RXFP1 (Homo sapiens, UniProt Q9HBX9).
T1 construct: expressed in transfected cells
T1 sequence (Q9HBX9 1-757): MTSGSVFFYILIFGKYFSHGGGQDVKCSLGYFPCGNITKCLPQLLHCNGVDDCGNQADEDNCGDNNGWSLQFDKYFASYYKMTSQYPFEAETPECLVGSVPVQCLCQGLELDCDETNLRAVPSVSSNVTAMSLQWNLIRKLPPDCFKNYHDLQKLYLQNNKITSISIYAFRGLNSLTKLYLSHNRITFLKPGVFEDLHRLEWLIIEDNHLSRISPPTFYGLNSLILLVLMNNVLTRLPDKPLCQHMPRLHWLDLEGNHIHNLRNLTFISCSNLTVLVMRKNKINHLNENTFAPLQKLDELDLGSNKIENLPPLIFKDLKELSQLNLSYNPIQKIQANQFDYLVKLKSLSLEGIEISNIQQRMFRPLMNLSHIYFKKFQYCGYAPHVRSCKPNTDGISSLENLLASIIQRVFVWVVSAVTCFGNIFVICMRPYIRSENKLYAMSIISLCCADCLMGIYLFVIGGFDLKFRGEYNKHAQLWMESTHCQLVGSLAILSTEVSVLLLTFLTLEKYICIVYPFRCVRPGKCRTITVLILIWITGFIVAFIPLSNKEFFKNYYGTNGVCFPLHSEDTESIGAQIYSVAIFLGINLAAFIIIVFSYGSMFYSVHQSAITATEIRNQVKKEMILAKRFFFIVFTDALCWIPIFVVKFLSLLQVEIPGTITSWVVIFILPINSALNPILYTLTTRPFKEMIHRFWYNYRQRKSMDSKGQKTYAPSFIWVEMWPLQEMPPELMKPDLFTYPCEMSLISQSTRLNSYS
In words: hRXFP1 HEK293 cAMP assay (HTRF). The class given is cell-based. The note with it: HEK293 cells stably expressing human RXFP1; 30 min at rt; intracellular cAMP by HTRF. The procedure, abridged:
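Agonism is measured as cAMP by HTRF, quantified from a standard curve via the 665/590 nm ratio and fitted with a four-parameter logistic equation. Compounds (0.010 nM to 50 μM final, 2% DMSO) were applied for 30 min at rt to human RXFP1-expressing HEK293 cells in assay buffer containing 0.5 mM IBMX.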

Molecule `COc1ccc(C2=NOC3(C2)CN(C(=O)C(C)(C)CO)C3)cc1C(=O)Nc1c(C(=O)Nc2ccc(F)c(C(F)(F)F)c2)sc2cc(C(F)(F)F)ccc12` [Example 283, N-(4-fluoro-3-(trifluoromethyl)phenyl)-3-(5-(2-(3-hydroxy-2,2-dimethyl-propanoyl)-5-oxa-2,6-diazaspiro[3.4]oct-6-en-7-yl)-2-methoxy-benzamido)-6-(trifluoromethyl) benzo[b] thiophene-2-carboxamide] yielded an EC50 of 1120 nM.

`COc1ccc(-c2ccc(N3CCNCC3)nc2)cc1C(=O)Nc1c(C(=O)Nc2ccc(F)c(C(F)(F)F)c2)sc2cc(C(F)(F)F)ccc12` [Example 118, N-(4-fluoro-3-(trifluoromethyl)phenyl)-3-(2-methoxy-5-(6-(piperazin-1-yl)pyridin-3-yl)benzamido)-6-(trifluoromethyl) benzo[b] thiophene-2-carboxamide] had an EC50 of 255 nM.

For the molecule `COc1cc(F)c(C(=O)N2CC(S(C)(=O)=O)C2)cc1C(=O)Nc1c(C(=O)Nc2ccc(F)c(C(F)(F)F)c2)sc2cc(C(F)(F)F)ccc12` [Example 28, 3-(4-fluoro-2-methoxy-5-(3-(methylsulfonyl)azetidine-1-carbonyl)benzamido)-N-(4-fluoro-3-(trifluoromethyl)phenyl)-6-(trifluoromethyl)benzo[b]thiophene-2-carboxamide], the EC50 was 48.7 nM.

Molecule `COc1ccc(-c2cccc(C(C)(C)O)c2)cc1C(=O)Nc1c(C(=O)Nc2ccc(F)c(C(F)(F)F)c2)sc2cc(C(F)(F)F)ccc12` [Example 120, N-(4-fluoro-3-(trifluoromethyl)phenyl)-3-(3′-(2-hydroxypropan-2-yl)-4-methoxy-[1,1′-biphenyl]-3-carboxamido)-6-(trifluoromethyl) benzo[b] thiophene-2-carboxamide] came in with an EC50 of 228 nM.

`COc1ccc(C2=NOC3(CCN(C(=O)C(C)(C)O)CC3)C2)cc1C(=O)Nc1c(C(=O)Nc2ccc(F)c(C(F)(F)F)c2)sc2cc(C(F)(F)F)ccc12` [Example 270, N-(4-fluoro-3-(trifluoromethyl)phenyl)-3-(5-(8-(2-hydroxy-2-methylpropanoyl)-1-oxa-2,8-diazaspiro[4.5]dec-2-en-3-yl)-2-methoxy-benzamido)-6-(trifluoromethyl) benzo[b] thiophene-2-carboxamide] registered an EC50 of 532 nM.

For `COc1ccc(C(=O)N2CC3(COC3)C2)cc1C(=O)Nc1c(C(=O)Nc2ccc(F)c(C(F)(F)F)c2)sc2cc(C(F)(F)F)ccc12` [Example 181, N-(4-fluoro-3-(trifluoromethyl)phenyl)-3-(2-methoxy-5-(2-oxa-6-azaspiro[3.3]heptane-6-carbonyl)benzamido)-6-(trifluoromethyl) benzo[b] thiophene-2-carboxamide], the response was half-maximal at 544 nM (EC50).

For `COc1ccc(C2CCCN(C(=O)CN(C)C)C2)cc1C(=O)Nc1c(C(=O)Nc2ccc(F)c(C(F)(F)F)c2)sc2cc(C(F)(F)F)ccc12` (stereo not shown) [Example 95, 3-(5-(1-(dimethylglycyl)piperidin-3-yl)-2-methoxy-benzamido)-N-(4-fluoro-3-(trifluoromethyl)phenyl)-6-(trifluoromethyl) benzo[b] thiophene-2-carboxamide], it took 870 nM to reach a half-maximal effect (EC50).

Regarding `COc1ccc(N2CCOC(CC(C)(C)O)C2)cc1C(=O)Nc1c(C(=O)Nc2ccc(F)c(C(F)(F)F)c2)sc2cc(C(F)(F)F)ccc12` (single isomer, unassigned) [Example 228, N-(4-fluoro-3-(trifluoromethyl)phenyl)-3-(5-(2-(2-hydroxy-2-methylpropyl)morpholino)-2-methoxy-benzamido)-6-(trifluoromethyl) benzo[b] thiophene-2-carboxamide], the half-maximal effective concentration (EC50) came out at 1540 nM.

`COc1ccc(C2=NOC3CC(C(C)(C)O)CC23)cc1C(=O)Nc1c(C(=O)Nc2ccc(F)c(C(F)(F)F)c2)sc2cc(C(F)(F)F)ccc12` (single isomer, unassigned) [Example 55, N-(4-fluoro-3-(trifluoromethyl)phenyl)-3-(5-(5-(2-hydroxypropan-2-yl)-3a, 5,6,6a-tetrahydro-4H-cyclopenta[d]isoxazol-3-yl)-2-methoxybenzamido)-6-(trifluoromethyl)benzo[b]thiophene-2-carboxamide]: the EC50 was found to be 320 nM.

Turning to `COc1ccc(C(=O)N2CC[C@@H](O)C2)cc1C(=O)Nc1c(C(=O)Nc2ccc(F)c(C(F)(F)F)c2)sc2cc(Cl)ncc12` [Example 199, (R)-6-chloro-N-(4-fluoro-3-(trifluoromethyl)phenyl)-3-(5-(3-hydroxypyrrolidine-1-carbonyl)-2-methoxy-benzamido) thieno[3,2-c]pyridine-2-carboxamide], the EC50 came to 690 nM.

As for `COc1ccc(C2=NOC3CC(NC(=O)CO)CC23)cc1C(=O)Nc1c(C(=O)Nc2ccc(F)c(C(F)(F)F)c2)sc2cc(C(F)(F)F)ccc12` (single isomer, unassigned) [Example 266, N-[4-fluoro-3-(trifluoromethyl)phenyl]-3-{5-[5-(2-hydroxyacetamido)-3aH,4H,5H,6H, 6aH-cyclopenta[d] [1,2]oxazol-3-yl]-2-methoxy-benzamido}-6-(trifluoromethyl)-1-benzothiophene-2-carboxamide], the EC50 amounted to 2410 nM.

Consider `COc1ccc(N2CCCC(C(=O)O)C2)cc1C(=O)Nc1c(C(=O)Nc2ccc(F)c(C(F)(F)F)c2)sc2cc(C(F)(F)F)ccc12` (single isomer, unassigned) [Example 5, 1-(3-((2-((4-fluoro-3-(trifluoromethyl)phenyl)carbamoyl)-6-(trifluoromethyl)benzo[b]thiophen-3-yl)carbamoyl)-4-methoxyphenyl) piperidine-3-carboxylic acid], for which the EC50 worked out at 150 nM.

In turn, `COc1ccc(-c2cc(CNCC(C)C)ccc2F)cc1C(=O)Nc1c(C(=O)Nc2ccc(F)c(C(F)(F)F)c2)sc2cc(C(F)(F)F)ccc12` [Example 19, N-(4-fluoro-3-(trifluoromethyl)phenyl)-3-(2′-fluoro-5′-((isobutylamino)methyl)-4-methoxy-[1,1′-biphenyl]-3-carboxamido)-6-(trifluoromethyl) benzo[b]thiophene-2-carboxamide] gave an EC50 of 1010 nM.

`COc1ccc(C(=O)NCC2(S(C)(=O)=O)CC2)cc1C(=O)Nc1c(C(=O)Nc2ccc(F)c(C(F)(F)F)c2)sc2cc(C(F)(F)F)ccc12` [Example 131, N3-(2-((4-fluoro-3-(trifluoromethyl)phenyl)carbamoyl)-6-(trifluoromethyl)benzo[b]thiophen-3-yl)-4-methoxy-N1-((1-(methylsulfonyl)cyclopropyl)methyl) isophthalamide] displayed an EC50 of 51.2 nM.

`COc1ccc(C2CC3CCC(C2)N3CCS(C)(=O)=O)cc1C(=O)Nc1c(C(=O)Nc2ccc(F)c(C(F)(F)F)c2)sc2cc(C(F)(F)F)ccc12` (stereo not shown) [Example 193, N-(4-fluoro-3-(trifluoromethyl)phenyl)-3-(2-methoxy-5-(8-(2-(methylsulfonyl)ethyl)-8-azabicyclo[3.2.1]octan-3-yl)benzamido)-6-(trifluoromethyl) benzo[b] thiophene-2-carboxamide] had an EC50 of 300 nM.

The molecule `COc1ccc(C2CCCN(CCS(C)(=O)=O)C2)cc1C(=O)Nc1c(C(=O)Nc2ccc(F)c(C(F)(F)F)c2)sc2cc(C(F)(F)F)ccc12` (stereo not shown) [Example 100, N-(4-fluoro-3-(trifluoromethyl)phenyl)-3-(2-methoxy-5-(1-(2-(methylsulfonyl)ethyl)piperidin-3-yl)benzamido)-6-(trifluoromethyl) benzo[b] thiophene-2-carboxamide] displayed an EC50 of 2010 nM.

Consider `COc1ccc(C2CC2C(C)(C)O)cc1C(=O)Nc1c(C(=O)Nc2ccc(F)c(C(F)(F)F)c2)sc2cc(C(F)(F)F)ccc12` (stereo not shown) [Example 159, N-(4-fluoro-3-(trifluoromethyl)phenyl)-3-(5-(2-(2-hydroxypropan-2-yl)cyclopropyl)-2-methoxy-benzamido)-6-(trifluoromethyl) benzo[b] thiophene-2-carboxamide], for which the EC50 came to 199 nM.

On to `COc1ccc(C2CCCN(C(=O)CO)C2)cc1C(=O)Nc1c(C(=O)Nc2ccc(F)c(C(F)(F)F)c2)sc2cc(C(F)(F)F)ccc12` (single isomer, unassigned) [Example 103, N-[4-fluoro-3-(trifluoromethyl)phenyl]-3-{5-[1-(2-hydroxyacetyl)piperidin-3-yl]-2-methoxy-benzamido}-6-(trifluoromethyl)-1-benzothiophene-2-carboxamide], for which the EC50 was determined as 690 nM.

In turn, `COc1ccc(C2CCCC(NC3COC3)C2)cc1C(=O)Nc1c(C(=O)Nc2ccc(F)c(C(F)(F)F)c2)sc2cc(C(F)(F)F)ccc12` (single isomer, unassigned) [Example 61, N-(4-fluoro-3-(trifluoromethyl)phenyl)-3-(2-methoxy-5-(3-(oxetan-3-ylamino)cyclohexyl)benzamido)-6-(trifluoromethyl) benzo[b] thiophene-2-carboxamide] gave an EC50 of 599 nM.
